In one assay the target is β-adrenergic receptors. The assay can be described thus: 3H-Dihydroalprenolol binding in hippocampal membranes. The arrangement: species or system mouse.
A further assay has as its target T1, NA transporter (Mus musculus, UniProt O55192).
T1 construct: the tissue from four animals was pooled, homogenized in incubation buffer; from tissue; host or cells: mouse hippocampus membranes (P2rx7+/+ and P2rx7-/- littermates, C57BL/6 background)
The assay can be described thus: 3H-Nisoxetine binding in hippocampal membranes. How it is done:
Male mice (80–85 days old) were decapitated, and the hippocampus was dissected, weighted, and frozen overnight at −70°C. The next day, the tissue from four animals was pooled, homogenized in incubation buffer using an Ultra-Turrax and centrifuged at 40 000×g for 15 minutes. The pellet was washed by repeated resuspension in buffer, followed by centrifugation. […] Eight ligand concentrations (0.1–4 nM) were used in three parallels. The incubation time was 1 hour at 25°C for citalopram, 2.5 hrs at 4°C for nisoxetine and 30 minutes at 25°C for dihydroalprenolol. The non-specific binding was determined in the presence of 1 µM paroxetine (citalopram), 10 µM desmethylimipramine (nisoxetine) and 1 µM (-) alprenolol (DHA). The membranes of P2rx7+/+ and P2rx7−/− mice were assayed in parallel. The binding was terminated using vacuum filtration on GF/B filters soaked in 0.05% polyethylenimine. The Kd and the number of binding sites (Bmax) were calculated using Prism3 software. The protein concentration (approx. 0.5 mg/ml) was measured according to Lowry method using CuEDTA.

Setting [1] is: hippocampal membranes of P2rx7+/+ mice.
Where [2] appears, read: hippocampal membranes of P2rx7−/− mice.

Broadly, the Kd is a measure of binding affinity in units of concentration. Higher therefore signals a looser complex.

T1 sequence (O55192 whole entry): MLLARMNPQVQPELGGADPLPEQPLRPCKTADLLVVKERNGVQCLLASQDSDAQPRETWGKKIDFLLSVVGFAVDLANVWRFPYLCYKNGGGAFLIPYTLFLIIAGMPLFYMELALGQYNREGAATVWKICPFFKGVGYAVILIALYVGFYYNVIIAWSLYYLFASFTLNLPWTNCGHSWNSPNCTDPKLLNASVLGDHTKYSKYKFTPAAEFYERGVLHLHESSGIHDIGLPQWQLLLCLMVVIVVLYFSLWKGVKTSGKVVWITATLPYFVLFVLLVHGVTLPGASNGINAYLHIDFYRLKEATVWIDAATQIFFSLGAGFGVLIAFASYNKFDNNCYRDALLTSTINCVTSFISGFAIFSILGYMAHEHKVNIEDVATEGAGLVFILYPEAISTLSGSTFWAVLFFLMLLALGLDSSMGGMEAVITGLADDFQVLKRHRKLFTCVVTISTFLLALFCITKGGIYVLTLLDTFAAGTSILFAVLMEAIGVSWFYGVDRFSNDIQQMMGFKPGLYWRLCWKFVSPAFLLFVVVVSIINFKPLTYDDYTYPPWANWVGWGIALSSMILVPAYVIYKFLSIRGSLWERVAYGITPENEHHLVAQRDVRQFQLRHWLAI
Procedure for β-adrenergic receptors: Male mice (80–85 days old) were decapitated, and the hippocampus was dissected, weighted, and frozen overnight at −70°C. The next day, the tissue from four animals was pooled, homogenized in incubation buffer using an Ultra-Turrax and centrifuged at 40 000×g for 15 minutes. The pellet was washed by repeated resuspension in buffer, followed by centrifugation. […] Eight ligand concentrations (0.1–4 nM) were used in three parallels. […] The membranes of P2rx7+/+ and P2rx7−/− mice were assayed in parallel. The binding was terminated using vacuum filtration on GF/B filters soaked in 0.05% polyethylenimine. The Kd and the number of binding sites (Bmax) were calculated using Prism3 software. The protein concentration (approx. 0.5 mg/ml) was measured according to Lowry method [50] using CuEDTA.

With `CCCc1ccccc1OCC(O)CNC(C)C` (centres unmarked) [^3H-dihydroalprenolol], the Kd was found to be 500 ± 20 pM on β-adrenergic receptors (setting [1]) and 400 ± 20 pM on β-adrenergic receptors (setting [2]).
On NA transporter, `CNCCC(Oc1ccccc1OC)c1ccccc1` (centres unmarked) [^3H-nisoxetine] came in with a Kd of 700 ± 50 pM. Also, the Bmax at NA transporter (setting [1]) was found to be 126.8±4.9 fmol/mg protein; at NA transporter (setting [2]), 131.4±7.5 fmol/mg protein.

The record behind these values is article PMC3689833, “Neurochemical Changes in the Mouse Hippocampus Underlying the Antidepressant Effect of Genetic Deletion of P2X7 Receptors” (PLoS ONE, 2013).
